These results are taken from PubChem BioAssay AID180 (DTP/NCI, 2004).

For the assay, the system named is BDF1 mice, Adenocarcinoma 755 s.c., tumor weight T/C. In words: NCI In Vivo Anticancer Drug Screen. Data for tumor model Adenocarcinoma 755 (subcutaneous) in B6D2F1 (BDF1) mice. The note with it: endpoint: mean tumor weight, higher = larger tumour. In short, it runs like this:
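Transplantable tumor implanted; mice dosed with compound or vehicle; survival or tumor size recorded; ratio of treated to vehicle control reported.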

[1] abbreviates: dose: 25.0 mg/kg/injection, schedule: Q01DX011 (ip), vehicle: methylcellulose (MC).
The mark [2] stands for this setting: dose: 75.0 mg/kg/injection, schedule: Q01DX011 (ip), vehicle: methylcellulose (MC).
Where [3] appears, read: dose: 5.0 mg/kg/injection, schedule: Q01DX011 (ip), vehicle: carboxymethylcellulose (CMC).
The mark [4] stands for this setting: dose: 10.0 mg/kg/injection, schedule: Q01DX011 (ip), vehicle: carboxymethylcellulose (CMC).
Where [5] appears, read: dose: 20.0 mg/kg/injection, schedule: Q01DX011 (ip), vehicle: carboxymethylcellulose (CMC).
The mark [6] stands for this setting: dose: 50.0 mg/kg/injection, schedule: Q01DX011 (ip), vehicle: methylcellulose (MC).
Setting [7] is: dose: 100.0 mg/kg/injection, schedule: Q01DX011 (ip), vehicle: methylcellulose (MC).
[8] abbreviates: dose: 12.5 mg/kg/injection, schedule: Q01DX011 (ip), vehicle: methylcellulose (MC).

Values joined by “and” are separate entries in the source; they are usually repeats but may differ in a detail not shown here. Equal entries are not always repeated.

With `OC1CC([CH2][Hg][Cl])OC([CH2][Hg][Cl])C1` (stereo not drawn), the T/C – broadly, the ratio of treated to control – (dose: 6.0 mg/kg/injection, schedule: Q01DX011 (ip), vehicle: carboxymethylcellulose (CMC)) is 95 % of control; the T/C (dose: 12.0 mg/kg/injection, schedule: Q01DX011 (ip), vehicle: carboxymethylcellulose (CMC)) was 109 % of control; the T/C (dose: 25.0 mg/kg/injection, schedule: Q01DX011 (ip), vehicle: carboxymethylcellulose (CMC)) was 28 % of control and 36 % of control; the T/C (dose: 50.0 mg/kg/injection, schedule: Q01DX011 (ip), vehicle: carboxymethylcellulose (CMC)) is 92 % of control.

Take `Cn1cnc2c(ncn2C2CC(O)C(CO)O2)c1=N` (stereo not drawn): the T/C is, setting by setting: (dose: 30.0 mg/kg/injection, schedule: Q01DX011 (ip), vehicle: saline) 83 % of control; (dose: 60.0 mg/kg/injection, schedule: Q01DX011 (ip), vehicle: saline) 100 % of control; (dose: 120.0 mg/kg/injection, schedule: Q01DX011 (ip), vehicle: saline) 80 % of control; (dose: 240.0 mg/kg/injection, schedule: Q01DX011 (ip), vehicle: saline) 108 % of control.

With `Cc1ccc2c(c1)CCCN2C(=O)CCCl`, the T/C reads like this: under setting [1], 101 % of control; under setting [2], 40 % of control; (dose: 225.0 mg/kg/injection, schedule: Q01DX011 (ip), vehicle: methylcellulose (MC)) 60 % of control.

Take `Brc1ncc2[nH]cnc2n1`: the T/C is, setting by setting: under setting [1], 79 % of control; under setting [2], 75 % of control.

As for `Cn1ncc2c(NCc3ccccc3)ncnc21`, the T/C reads like this: under setting [3], 62 % of control and 66 % of control and 71 % of control; under setting [4], 43 % of control and 58 % of control and 60 % of control; under setting [5], 5 % of control and 24 % of control and 29 % of control.

Turning to `CCOC(=O)c1cc[c]([Sb](=[O])([OH])[OH])cc1`, the T/C reads like this: (dose: 12.0 mg/kg/injection, schedule: Q01DX011 (ip), vehicle: methylcellulose (MC)) 116 % of control; (dose: 15.0 mg/kg/injection, schedule: Q01DX011 (ip), vehicle: carboxymethylcellulose (CMC)) 70 % of control; under setting [6], 55 % of control; under setting [7], 102 % of control.

Regarding `C[C@]12CCC(=O)C=C1CC[C@@H]1[C@@H]2[C@@H](O)C[C@@]2(C)[C@H]1CC[C@]2(O)C(=O)CF`, the T/C by setting is: (dose: 50.0 mg/kg/injection, schedule: Q01DX011 (sc), vehicle: steriod suspending solution) 21 % of control; (dose: 100.0 mg/kg/injection, schedule: Q01DX011 (sc), vehicle: steriod suspending solution) 16 % of control; (dose: 200.0 mg/kg/injection, schedule: Q01DX011 (sc), vehicle: steriod suspending solution) 6 % of control and 10 % of control; (dose: 400.0 mg/kg/injection, schedule: Q01DX011 (sc), vehicle: steriod suspending solution) 7 % of control and 9 % of control; (dose: 600.0 mg/kg/injection, schedule: Q01DX011 (sc), vehicle: steriod suspending solution) 9 % of control.

Turning to `O=C(Nc1ccc(C2=NCCN2)cc1)c1ccc(C(=O)Nc2ccc(C3=NCCN3)cc2)cc1`, the T/C was 122 % of control (dose: 3.3 mg/kg/injection, schedule: Q01DX011 (ip), vehicle: methylcellulose (MC)) and 113 % of control (dose: 6.5 mg/kg/injection, schedule: Q01DX011 (ip), vehicle: methylcellulose (MC)).

As for `O=C(O)CNc1ncnc2[nH]ncc12`, the T/C reads like this: under setting [8], 65 % of control; under setting [1], 82 % of control; under setting [6], 36 % of control; under setting [7], 2 % of control and 7 % of control.

On to `CCOC(=O)C(Cc1ccc(N(CCCl)CCCl)cc1)NC=O` (stereo not drawn), for which the T/C is 75 % of control under setting [3]; 43 % of control under setting [4]; 48 % of control under setting [5]; 3 % of control (dose: 40.0 mg/kg/injection, schedule: Q01DX011 (ip), vehicle: carboxymethylcellulose (CMC)); 6 % of control (dose: 80.0 mg/kg/injection, schedule: Q01DX011 (ip), vehicle: carboxymethylcellulose (CMC)).

Regarding `CS(=O)(=O)OCC1OC(O)CC1O` (stereo not drawn), the T/C was 113 % of control (dose: 25.0 mg/kg/injection, schedule: Q01DX011 (ip), vehicle: saline) and 153 % of control (dose: 75.0 mg/kg/injection, schedule: Q01DX011 (ip), vehicle: saline).

Regarding `CCCCn1cnc2c(SCc3ccc(Cl)cc3Cl)nc(N)nc21`, the T/C under setting [6] was 61 % of control; the T/C under setting [7] was 46 % of control; the T/C (dose: 200.0 mg/kg/injection, schedule: Q01DX011 (ip), vehicle: methylcellulose (MC)) is 35 % of control; the T/C (dose: 400.0 mg/kg/injection, schedule: Q01DX011 (ip), vehicle: methylcellulose (MC)) was 5 % of control.

Consider `Nc1ncnc2c1cnn2CCCl`, for which the T/C is 79 % of control (dose: 1.5 mg/kg/injection, schedule: Q01DX011 (ip), vehicle: methylcellulose (MC)); 104 % of control (dose: 1.5 mg/kg/injection, schedule: Q01DX011 (ip), vehicle: saline); 31 % of control (dose: 3.1 mg/kg/injection, schedule: Q01DX011 (ip), vehicle: methylcellulose (MC)); 90 % of control (dose: 3.1 mg/kg/injection, schedule: Q01DX011 (ip), vehicle: saline); 50 % of control and 65 % of control (dose: 4.0 mg/kg/injection, schedule: Q01DX011 (ip), vehicle: carboxymethylcellulose (CMC)); 26 % of control and 33 % of control (dose: 6.2 mg/kg/injection, schedule: Q01DX011 (ip), vehicle: methylcellulose (MC)). The T/C is, setting by setting: (dose: 6.2 mg/kg/injection, schedule: Q01DX011 (ip), vehicle: saline) 73 % of control; under setting [8], 9 % of control; (dose: 12.5 mg/kg/injection, schedule: Q01DX011 (ip), vehicle: saline) 25 % of control; (dose: 16.0 mg/kg/injection, schedule: Q01DX011 (ip), vehicle: carboxymethylcellulose (CMC)) 35 % of control.

As to `Nc1nc(N)c(N=O)c(Nc2ccc(Cl)c(Cl)c2)n1`, the T/C was 90 % of control (dose: 1.75 mg/kg/injection, schedule: Q01DX011 (ip), vehicle: methylcellulose (MC)); 76 % of control (dose: 3.0 mg/kg/injection, schedule: Q01DX011 (ip), vehicle: carboxymethylcellulose (CMC)); 77 % of control (dose: 3.5 mg/kg/injection, schedule: Q01DX011 (ip), vehicle: methylcellulose (MC)); 61 % of control (dose: 4.0 mg/kg/injection, schedule: Q01DX011 (ip), vehicle: methylcellulose (MC)); 50 % of control (dose: 6.0 mg/kg/injection, schedule: Q01DX011 (ip), vehicle: methylcellulose (MC)); 57 % of control (dose: 7.0 mg/kg/injection, schedule: Q01DX011 (ip), vehicle: carboxymethylcellulose (CMC)). The T/C runs as follows: (dose: 7.0 mg/kg/injection, schedule: Q01DX011 (ip), vehicle: methylcellulose (MC)) 48 % of control; (dose: 14.0 mg/kg/injection, schedule: Q01DX011 (ip), vehicle: carboxymethylcellulose (CMC)) 45 % of control and 50 % of control; (dose: 14.0 mg/kg/injection, schedule: Q01DX011 (ip), vehicle: methylcellulose (MC)) 25 % of control and 44 % of control; (dose: 28.0 mg/kg/injection, schedule: Q01DX011 (ip), vehicle: methylcellulose (MC)) 21 % of control; (dose: 57.0 mg/kg/injection, schedule: Q01DX011 (ip), vehicle: carboxymethylcellulose (CMC)) 66 % of control; (dose: 57.0 mg/kg/injection, schedule: Q01DX011 (ip), vehicle: methylcellulose (MC)) 18 % of control. The T/C by setting is: (dose: 114.0 mg/kg/injection, schedule: Q01DX011 (ip), vehicle: carboxymethylcellulose (CMC)) 63 % of control; (dose: 228.0 mg/kg/injection, schedule: Q01DX011 (ip), vehicle: carboxymethylcellulose (CMC)) 8 % of control.

Regarding `N#CCSc1nc(N)nc2nc[nH]c12`, the T/C is, setting by setting: (dose: 0.5 mg/kg/injection, schedule: Q01DX011 (ip), vehicle: carboxymethylcellulose (CMC)) 82 % of control; (dose: 1.0 mg/kg/injection, schedule: Q01DX011 (ip), vehicle: carboxymethylcellulose (CMC)) 63 % of control; (dose: 2.0 mg/kg/injection, schedule: Q01DX011 (ip), vehicle: carboxymethylcellulose (CMC)) 70 % of control.

For `C[C@]12CC[C@H](O)C[C@@H]1CC[C@@H]1[C@@H]2C(=O)C[C@]2(C)C3=CC(=O)O[C@H]3C[C@@H]12`, the T/C (dose: 5.0 mg/kg/injection, schedule: Q01DX011 (sc), vehicle: steriod suspending solution) is 73 % of control; the T/C (dose: 10.0 mg/kg/injection, schedule: Q01DX011 (sc), vehicle: steriod suspending solution) is 69 % of control; the T/C (dose: 20.0 mg/kg/injection, schedule: Q01DX011 (sc), vehicle: steriod suspending solution) is 74 % of control; the T/C (dose: 40.0 mg/kg/injection, schedule: Q01DX011 (sc), vehicle: steriod suspending solution) is 77 % of control.
